In PMC6264278, “Corydaline Inhibits Multiple Cytochrome P450 and UDP-Glucuronosyltransferase Enzyme Activities in Human Liver Microsomes” (Molecules, 2011):

Biological target: T1, UGT1A4 (Homo sapiens, UniProt P22310)
T1 construct: using pooled human liver microsomes; tissue BD Gentest Co. H161; host or cells: pooled human liver microsomes
T1 sequence (P22310 29-534): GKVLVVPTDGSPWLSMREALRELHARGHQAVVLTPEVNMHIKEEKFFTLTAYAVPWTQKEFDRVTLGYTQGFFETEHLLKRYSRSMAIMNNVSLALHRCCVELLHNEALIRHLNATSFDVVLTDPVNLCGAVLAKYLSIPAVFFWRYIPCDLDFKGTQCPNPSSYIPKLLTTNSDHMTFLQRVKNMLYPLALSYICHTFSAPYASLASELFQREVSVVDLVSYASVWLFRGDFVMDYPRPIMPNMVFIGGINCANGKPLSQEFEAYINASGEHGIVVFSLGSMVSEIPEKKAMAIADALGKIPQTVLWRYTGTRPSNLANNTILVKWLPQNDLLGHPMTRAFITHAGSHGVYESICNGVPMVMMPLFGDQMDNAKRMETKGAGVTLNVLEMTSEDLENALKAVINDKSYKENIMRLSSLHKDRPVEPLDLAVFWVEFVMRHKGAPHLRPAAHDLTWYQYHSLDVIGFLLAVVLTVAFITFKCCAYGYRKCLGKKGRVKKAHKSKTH
Assay: UGT1A4 trifluoperazine N-glucuronidation inhibition in pooled human liver microsomes
Type: in vitro ADME
Details: pooled human liver microsomes (H161), 5 μM trifluoperazine, no inhibition at 1,000 μM of corydaline
Protocol: The inhibitory potencies (IC50 values) of corydaline were also determined with UGT assays in the presence and absence of corydaline (final concentrations of 1–1,000 μM with acetonitrile concentration less than 0.5% v/v) using pooled human liver microsomes. 17β-Estradiol 3-glucuronidation, trifluoperazine glucuronidation, propofol glucuronidation, and azidothymidine glucuronidation activities were determined as probe activities for UGT1A1, UGT1A4, UGT1A9, and UGT2B7, respectively, using LC/MS/MS. Incubation mixtures were prepared in a total volume of 100 μL, as follows: Pooled human liver microsomes (0.2 mg/mL for 17β-estradiol, trifluoperazine and azidothymidine; 0.1 mg/mL for propofol), 2 mM UDPGA, 25 μg/mL alamethicin, 10 mM MgCl2, 50 mM tris buffer (pH 7.4), UGT-isoform specific probe substrate (20 μM 17β-estradiol for UGT1A1, 5 μM trifluoperazine for UGT1A4, 10 μM propofol for UGT1A9, or 100 μM azidothymidine for UGT2B7), and various concentrations of corydaline (1−1000 μM). […]
Glucuronides produced from UGT isoform-specific substrates were respectively determined by LC/MS/MS. […] Quantification was performed by SRM of the [M+H]^+ ion for trifluoperazine glucuronide and azidothymidine glucuronide or [M−H]^− for 17β-estradiol 3-glucuronide and propofol glucuronide and the related product ion for each metabolite. […]

IC50, UGT1A4 trifluoperazine N-glucuronidation: not inhibited
IC50, UGT1A4 trifluoperazine N-glucuronidation (listed as corydaline): No inhibition *
SMILES: COc1cc2c(cc1OC)C1C(C)c3ccc(OC)c(OC)c3CN1CC2 (centres unmarked) [Corydaline, 2,3,9,10-tetramethoxy-13-methyl-5,8,13,13a-tetrahydro-6H-isoquino[3,2-a]isoquinoline]
